# According to paper PMC10501326, “A Phase I Study of the Pan-Notch Inhibitor CB-103 for Patients with Advanced Adenoid Cystic Carcinoma and Other Tumors” (Cancer Research Communications, 2023):
# Where “and” joins values, the source holds several entries; their conditions need not be identical. Identical values can stand only once. Entries after “also recorded” stand apart in the source; their conditions may differ. Like-named read-outs stand apart in the source and are kept apart here.
# Columns and labels:
# [1] = Plasma pharmacokinetics (LC/MS-MS); type: in vivo, human; details: for half-life: SD, read-out: Plasma elimination half-life (t1/2) (converted)
# Method: Plasma pharmacokinetics were assessed for CB-103 via blood samples taken on days 1 (predose, 0.5, 1, 2, 4, 6, 8 hours postdose ± 5 minutes, and 12 hours postdose ± 15 minutes), 2 (24-hour post-day 1, predose), 3 (predose), 8 (predose, 0.5, 1, 2, 4, 6, and 8 hour postdose ± 5 minutes), 9 (24-hour post-day 8, predose), 15, and 22 (predose, and 1 hour postdose) in cycle 1. In cycle 2, on day 1 (predose, 0.5, 1, 2, 6, and, 8 hours postdose ± 5 minutes) and 15 (predose); in cycles 3–6 once at each visit (predose or postdose). For a twice daily dose schedule, pharmacokinetic timepoints were adjusted to evaluate concentration-versus-time curves after morning and evening doses on days 1 and 8.
# CB-103 concentrations were determined by validated high-performance LC/MS-MS method and analyzed descriptively using Phoenix WinNonlin v6.3 (Pharsight Corporation). Data at timepoints collected were used to generate a population pharmacokinetic model to estimate AUC and Cmax to associate with safety and efficacy.
# HEY1 = test: Peripheral whole blood Notch target gene expression (Nanostring); type: in vivo, human; details: twice daily dosing, vs baseline
# Text: (§1) Archival tumor tissue (not older than 6 months prior to screening) or fresh tumor biopsy was required to characterize Notch alteration status by targeted genomic sequencing and/or NICD1 expression (via IHC) among the confirmatory cohort at baseline. Repeat biopsy on cycle 2 day 15 and at disease progression was optional. Serial whole blood samples (and/or bone marrow samples and saliva among patients with T-ALL/T-LBL) were obtained on day 1 of cycles 1–6 to evaluate the dynamics of Notch gene expression. Peripheral blood was collected with PaxGene tubes and frozen at −20°C until processing. RNA was extracted (Qiagen RNeasy Micro kit) from peripheral whole blood and analyzed by Nanostring with percent change in expression levels reported with respect to baseline normalized values.
# IL7R alpha = test: as above; type: in vivo, human; details: twice daily dosing, vs baseline
# Text: as §1
# NOTCH 2 = test: as above; type: in vivo, human; details: twice daily dosing, vs baseline
# Text: as §1
# NOTCH1 = test: as above; type: in vivo, human; details: twice daily dosing, vs baseline
# Text: as §1
# NOTCH4 = test: as above; type: in vivo, human; details: twice daily dosing, vs baseline
# Text: as §1
# [2] = system: Notch target genes (HEY1, IL7R alpha, NOTCH1, 2 and 4); test: Peripheral Notch target gene expression versus exposure (gene panel, in words); type: in vivo, human; details: patients with ACC on twice daily dosing (n = 13); up to 1,000 mg (500 mg twice daily)
# Text: as §1
# Percent change (%) in peripheral blood cell Notch target gene expression was monitored among a subset of patients with ACC receiving twice daily dosing (n = 13).
# [3] = set-up: method as in PMID 32601208; details: single agent and in combination with targeted and cytotoxic therapies; cited from earlier work
# [4] = individual patient, total dose 800 mg
# [5] = individual patients, total dose 500 mg
# [6] = individual patients, total dose 600 mg
# [7] = individual patients, total dose 1000 mg
compound,measurement,setting,value
CC(C)(C)c1ccc(Oc2ccc(N)cn2)cc1 [CB-103],AUC,"[1]; human, plasma, oral, 13 mg, Cohort 1 (13 mg), Cycle 1, Day 1, read-out: Mean AUC24",0.174 µg·h/mL
same,Cmax,"[1]; human, plasma, oral, 13 mg, Cohort 1 (13 mg), Cycle 1, Day 1, read-out: Mean Cmax",0.0444 µg/mL
same,AUC,"[1]; human, plasma, oral, 13 mg, Cohort 1 (13 mg), Cycle 1, Day 8, read-out: Mean AUC24",0.433 µg·h/mL
same,Cmax,"[1]; human, plasma, oral, 13 mg, Cohort 1 (13 mg), Cycle 1, Day 8, read-out: Mean Cmax",0.0587 µg/mL
same,AUC,"[1]; human, plasma, oral, 26 mg, Cohort 2 (26 mg), Cycle 1, Day 1, read-out: Mean AUC24",0.22 µg·h/mL
same,Cmax,"[1]; human, plasma, oral, 26 mg, Cohort 2 (26 mg), Cycle 1, Day 1, read-out: Mean Cmax",0.0537 µg/mL
same,AUC,"[1]; human, plasma, oral, 52 mg, Cohort 3 (52 mg), Cycle 1, Day 1, read-out: Mean AUC24",0.496 µg·h/mL
same,Cmax,"[1]; human, plasma, oral, 52 mg, Cohort 3 (52 mg), Cycle 1, Day 1, read-out: Mean Cmax",0.0985 µg/mL
same,AUC,"[1]; human, plasma, oral, 52 mg, Cohort 3 (52 mg), Cycle 1, Day 8, read-out: Mean AUC24",0.999 µg·h/mL
same,Cmax,"[1]; human, plasma, oral, 52 mg, Cohort 3 (52 mg), Cycle 1, Day 8, read-out: Mean Cmax",0.154 µg/mL
same,AUC,"[1]; human, plasma, oral, 104 mg, Cohort 4 (104 mg), Cycle 1, Day 1, read-out: Mean AUC24",1.44 µg·h/mL
same,Cmax,"[1]; human, plasma, oral, 104 mg, Cohort 4 (104 mg), Cycle 1, Day 1, read-out: Mean Cmax",0.368 µg/mL
same,AUC,"[1]; human, plasma, oral, 104 mg, Cohort 4 (104 mg), Cycle 1, Day 8, read-out: Mean AUC24",3.69 µg·h/mL
same,Cmax,"[1]; human, plasma, oral, 104 mg, Cohort 4 (104 mg), Cycle 1, Day 8, read-out: Mean Cmax",0.418 µg/mL
same,AUC,"[1]; human, plasma, oral, 148 mg, Cohort 5 (148 mg), Cycle 1, Day 1, read-out: Mean AUC24",1.26 µg·h/mL
same,Cmax,"[1]; human, plasma, oral, 148 mg, Cohort 5 (148 mg), Cycle 1, Day 1, read-out: Mean Cmax",0.482 µg/mL
same,AUC,"[1]; human, plasma, oral, 148 mg, Cohort 5 (148 mg), Cycle 1, Day 8, read-out: Mean AUC24",2.83 µg·h/mL
same,Cmax,"[1]; human, plasma, oral, 148 mg, Cohort 5 (148 mg), Cycle 1, Day 8, read-out: Mean Cmax",0.427 µg/mL
same,AUC,"[1]; human, plasma, oral, 217 mg, Cohort 6 (217 mg), Cycle 1, Day 1, read-out: Mean AUC24",2.62 µg·h/mL
same,Cmax,"[1]; human, plasma, oral, 217 mg, Cohort 6 (217 mg), Cycle 1, Day 1, read-out: Mean Cmax",0.731 µg/mL
same,AUC,"[1]; human, plasma, oral, 217 mg, Cohort 6 (217 mg), Cycle 1, Day 8, read-out: Mean AUC24",4.25 µg·h/mL
same,Cmax,"[1]; human, plasma, oral, 217 mg, Cohort 6 (217 mg), Cycle 1, Day 8, read-out: Mean Cmax",0.912 µg/mL
same,AUC,"[1]; human, plasma, oral, 250 mg, Cohort 9 (250 mg BID), Cycle 1, Day 1, read-out: Mean AUC24",6.14 µg·h/mL
same,Cmax,"[1]; human, plasma, oral, 250 mg, Cohort 9 (250 mg BID), Cycle 1, Day 1, read-out: Mean Cmax",1.01 µg/mL
same,AUC,"[1]; human, plasma, oral, 250 mg, Cohort 9 (250 mg BID), Cycle 1, Day 8, read-out: Mean AUC24",11.7 µg·h/mL
same,Cmax,"[1]; human, plasma, oral, 250 mg, Cohort 9 (250 mg BID), Cycle 1, Day 8, read-out: Mean Cmax",1.31 µg/mL
same,AUC,"[1]; human, plasma, oral, 300 mg, Cohort 10 (300 mg BID 5/2), Cycle 1, Day 1, read-out: Mean AUC24",10.4 µg·h/mL
same,Cmax,"[1]; human, plasma, oral, 300 mg, Cohort 10 (300 mg BID 5/2), Cycle 1, Day 1, read-out: Mean Cmax",1.63 µg/mL
same,AUC,"[1]; human, plasma, oral, 300 mg, Cohort 10 (300 mg BID 5/2), Cycle 1, Day 8, read-out: Mean AUC24",11.3 µg·h/mL
same,Cmax,"[1]; human, plasma, oral, 300 mg, Cohort 10 (300 mg BID 5/2), Cycle 1, Day 8, read-out: Mean Cmax",1.39 µg/mL
same,AUC,"[1]; human, plasma, oral, 348 mg, Cohort 7 (348 mg), Cycle 1, Day 1, read-out: Mean AUC24",3.52 µg·h/mL
same,Cmax,"[1]; human, plasma, oral, 348 mg, Cohort 7 (348 mg), Cycle 1, Day 1, read-out: Mean Cmax",1.15 µg/mL
same,AUC,"[1]; human, plasma, oral, 348 mg, Cohort 7 (348 mg), Cycle 1, Day 8, read-out: Mean AUC24",6.88 µg·h/mL
same,Cmax,"[1]; human, plasma, oral, 348 mg, Cohort 7 (348 mg), Cycle 1, Day 8, read-out: Mean Cmax",0.874 µg/mL
same,AUC,"[1]; human, plasma, oral, 400 mg, Cohort 11 (400 mg BID 5/2), Cycle 1, Day 1, read-out: Mean AUC24",14.9 µg·h/mL
same,Cmax,"[1]; human, plasma, oral, 400 mg, Cohort 11 (400 mg BID 5/2), Cycle 1, Day 1, read-out: Mean Cmax",1.62 µg/mL
same,AUC,"[1]; human, plasma, oral, 400 mg, Cohort 11 (400 mg BID 5/2), Cycle 1, Day 8, read-out: Mean AUC24",14.1 µg·h/mL
same,Cmax,"[1]; human, plasma, oral, 400 mg, Cohort 11 (400 mg BID 5/2), Cycle 1, Day 8, read-out: Mean Cmax",2.4 µg/mL
same,AUC,"[1]; human, plasma, oral, 500 mg, Cohort 12 (500 mg BID 5/2), Cycle 1, Day 1, read-out: Mean AUC24",14.2 µg·h/mL
same,Cmax,"[1]; human, plasma, oral, 500 mg, Cohort 12 (500 mg BID 5/2), Cycle 1, Day 1, read-out: Mean Cmax",2.39 µg/mL
same,AUC,"[1]; human, plasma, oral, 500 mg, Cohort 12 (500 mg BID 5/2), Cycle 1, Day 8, read-out: Mean AUC24",18.6 µg·h/mL
same,Cmax,"[1]; human, plasma, oral, 500 mg, Cohort 12 (500 mg BID 5/2), Cycle 1, Day 8, read-out: Mean Cmax",2.76 µg/mL
same,Cmax,"[1]; human, plasma, oral, 500 mg, individual patients, total dose 500 mg, twice daily dosing, read-out: Cmax",1.23 µg/mL
same,AUC,"[1]; human, plasma, oral, 522 mg, Cohort 8 (522 mg), Cycle 1, Day 1, read-out: Mean AUC24",5.91 µg·h/mL
same,Cmax,"[1]; human, plasma, oral, 522 mg, Cohort 8 (522 mg), Cycle 1, Day 1, read-out: Mean Cmax",1.23 µg/mL
same,AUC,"[1]; human, plasma, oral, 522 mg, Cohort 8 (522 mg), Cycle 1, Day 8, read-out: Mean AUC24",13.5 µg·h/mL
same,Cmax,"[1]; human, plasma, oral, 522 mg, Cohort 8 (522 mg), Cycle 1, Day 8, read-out: Mean Cmax",1.74 µg/mL
same,Cmax,"[1]; human, plasma, oral, 800 mg, individual patient, total dose 800 mg, twice daily dosing, read-out: Cmax",1.73 µg/mL
same,half-life,"[1]; human, plasma, oral, cycle 1 day 1, 8.5",16.5 h
same,Cmax,"[1]; human, plasma, oral, cycle 1 day 1, entire sampled cohort, read-out: Mean Cmax",0.731 µg/mL
same,half-life,"[1]; human, plasma, oral, cycle 1 day 8, 42.6",37.7 h
same,AUC,"[1]; human, plasma, oral, entire sampled cohort, read-out: Mean AUC from 0 to 24",3.16 µg·h/mL
same,Tmax,"[1]; human, plasma, oral, day 1 of cycle 1, dose-escalation cohorts 1 through 8, read-out: Peak (tmax)",0.5 to 2 h
same,Cmax,"[1]; individual patients, total dose 500 mg, twice daily dosing, read-out: Cmax",1.8 µg/mL
same,Cmax,"[1]; individual patients, total dose 600 mg, twice daily dosing",0.638 µg·h/mL and 2.1 µg·h/mL and 1.28 µg·h/mL and 1.22 µg·h/mL and 1.71 µg·h/mL
same,Cmax,"[1]; individual patients, total dose 1000 mg, twice daily dosing",4.42 µg·h/mL and 2.58 µg·h/mL and 3.76 µg·h/mL and 2.41 µg·h/mL and 1.24 µg·h/mL
same,HEY1 percent change in peripheral expression,HEY1; [4],52.3%
same,HEY1 percent change in peripheral expression,HEY1; [5],-52.0%
same,HEY1 percent change in peripheral expression,HEY1; [6],5.0% and -36.1% and 30.3% and -25.6%
same,HEY1 percent change in peripheral expression,HEY1; [7],11.7% and -71.3% and -75.9% and -55.2% and -57.8%
same,IL7R alpha percent change in peripheral expression,IL7R alpha; [4],-29.7%
same,IL7R alpha percent change in peripheral expression,IL7R alpha; [5],32.3% and 33.5%
same,IL7R alpha percent change in peripheral expression,IL7R alpha; [6],58.3% and -58.0% and -24.8% and -2.9% and -29.3%
same,IL7R alpha percent change in peripheral expression,IL7R alpha; [7],-53.6% and 3.5% and -16.2% and 0.2% and -41.7%
same,NOTCH 2 percent change in peripheral expression,NOTCH 2; [4],-9.4%
same,NOTCH 2 percent change in peripheral expression,NOTCH 2; [5],19.9% and -9.6%
same,NOTCH 2 percent change in peripheral expression,NOTCH 2; [6],-25.2% and -38.4% and -5.5% and -14.8% and -41.1%
same,NOTCH 2 percent change in peripheral expression,NOTCH 2; [7],-31.8% and -14.2% and -39.3% and -15.2% and 5.1%
same,NOTCH1 percent change in peripheral expression,NOTCH1; [4],-15.5%
same,NOTCH1 percent change in peripheral expression,NOTCH1; [5],39.2% and -7.1%
same,NOTCH1 percent change in peripheral expression,NOTCH1; [6],-28.1% and -41.2% and -35.7% and -14.2% and -39.7%
same,NOTCH1 percent change in peripheral expression,NOTCH1; [7],-8.7% and -0.1% and -58.3% and -20.2% and -13.3%
same,NOTCH4 percent change in peripheral expression,NOTCH4; [4],-3.5%
same,NOTCH4 percent change in peripheral expression,NOTCH4; [5],37.6% and -16.9%
same,NOTCH4 percent change in peripheral expression,NOTCH4; [6],34.0% and -49.7% and -7.9% and 11.5% and 32.9%
same,NOTCH4 percent change in peripheral expression,NOTCH4; [7],-20.8% and -40.4% and 22.0% and 4.5% and 29.7%
same,Peripherally measured Notch target gene expression levels versus exposure/dose,[2],downregulation; also recorded: declined with increasing exposure
same,Anticancer activity,[3],potent anticancer activity
